According to patent US10335409B2 (priority 2012, dated 2019):

Assays:
[1] = test system: genotype 2a (JFH-1) stable HCV replicon in Huh-7-derived cells; test: Stable subgenomic HCV replicon EC50, genotype 2a (Renilla luciferase); type: cell-based, hepatitis C virus; conditions: Hepatitis C virus, stable replicon genotype 2a, 72 h, read-out: EC50 2A RLUC
How it was run: (§1)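 Compounds, three-fold diluted, were applied to Huh-7-derived cells harbouring luciferase replicons (genotype 1a H77, 1b Con1, 2a JFH-1, 4a ED43, with strain-specific adaptive mutations). Seventy-two hours later, intracellular replication was gauged by Renilla luciferase activity and EC50 derived by regression.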

[2] = test system: genotype 1b (Con1) wild type transient HCV replicon in Huh-7-derived cells; test: Transient-transfected HCV replicon EC50, genotype 1b wild type; type: cell-based, hepatitis C virus; conditions: Hepatitis C virus, 72 h, transient-transfected replicon genotype 1b wild type, read-out: EC50 1B WT
[3] = test system: genotype 3a (S52) wild type transient HCV replicon in Huh-7-derived cells; test: Transient-transfected HCV replicon EC50, genotype 3a wild type; type: cell-based, hepatitis C virus; conditions: Hepatitis C virus; transient-transfected replicon genotype 3a wild type, 72 h; read-out: EC50 3A WT
[4] = test system: genotype 1a (H77) wild type transient HCV replicon in Huh-7-derived cells; test: Transient-transfected HCV replicon EC50, genotype 1a wild type; type: cell-based, hepatitis C virus; conditions: Hepatitis C virus, 72 h, transient-transfected replicon genotype 1a wild type, read-out: EC50 1A WT
[5] = test system: genotype 1b (Con1) stable HCV replicon in Huh-7-derived cells; test: Stable subgenomic HCV replicon EC50, genotype 1b (Renilla luciferase); type: cell-based, hepatitis C virus; conditions: Hepatitis C virus, stable replicon genotype 1b, 72 h, read-out: EC50 1B RLUC
How it was run: as §1

[6] = test system: genotype 1a NS3/4a protease inhibitor resistant variant R155K transient HCV replicon in Huh-7-derived cells; test: Transient-transfected HCV replicon EC50, genotype 1a R155K; type: cell-based, hepatitis C virus; conditions: Hepatitis C virus, 72 h, read-out: EC50 1A R155K, transient-transfected replicon genotype 1a R155K resistant variant, 72 h
[7] = test system: genotype 3a (S52) stable HCV replicon in Huh-7-derived cells; test: Stable subgenomic HCV replicon EC50, genotype 3a (Renilla luciferase); type: cell-based, hepatitis C virus; conditions: Hepatitis C virus, 72 h, read-out: EC50 3A RLUC
[8] = test system: genotype 1a (H77) stable HCV replicon in Huh-7-derived cells; test: Stable subgenomic HCV replicon EC50, genotype 1a (Renilla luciferase); type: cell-based, hepatitis C virus; conditions: Hepatitis C virus, stable replicon genotype 1a, 72 h, read-out: EC50 1A RLUC
How it was run: as §1

[9] = test system: genotype 1b NS3/4a protease inhibitor resistant variant D168A transient HCV replicon in Huh-7-derived cells; test: Transient-transfected HCV replicon EC50, genotype 1b D168A; type: cell-based, hepatitis C virus; conditions: Hepatitis C virus, 72 h, read-out: EC50 1B D168A, transient-transfected replicon genotype 1b D168A resistant variant, 72 h
[10] = test system: genotype 4a (ED43) stable HCV replicon in Huh-7-derived cells; test: Stable subgenomic HCV replicon EC50, genotype 4a (Renilla luciferase); type: cell-based, hepatitis C virus; conditions: Hepatitis C virus, 72 h, read-out: EC50 4A RLUC
How it was run: as §1

[11] = biological target: HCV NS3 protease domain genotype 3a (Hepatitis C virus genotype 3a, UniProt Q81258); test: Ki determination, NS3 protease genotype 3a (fluorogenic depsipeptide substrate); type: biochemical; conditions: 200 pM enzyme, NS4A peptide
Chain of HCV NS3 protease domain genotype 3a (Q81258 whole entry, looked up, the tested form may be a part): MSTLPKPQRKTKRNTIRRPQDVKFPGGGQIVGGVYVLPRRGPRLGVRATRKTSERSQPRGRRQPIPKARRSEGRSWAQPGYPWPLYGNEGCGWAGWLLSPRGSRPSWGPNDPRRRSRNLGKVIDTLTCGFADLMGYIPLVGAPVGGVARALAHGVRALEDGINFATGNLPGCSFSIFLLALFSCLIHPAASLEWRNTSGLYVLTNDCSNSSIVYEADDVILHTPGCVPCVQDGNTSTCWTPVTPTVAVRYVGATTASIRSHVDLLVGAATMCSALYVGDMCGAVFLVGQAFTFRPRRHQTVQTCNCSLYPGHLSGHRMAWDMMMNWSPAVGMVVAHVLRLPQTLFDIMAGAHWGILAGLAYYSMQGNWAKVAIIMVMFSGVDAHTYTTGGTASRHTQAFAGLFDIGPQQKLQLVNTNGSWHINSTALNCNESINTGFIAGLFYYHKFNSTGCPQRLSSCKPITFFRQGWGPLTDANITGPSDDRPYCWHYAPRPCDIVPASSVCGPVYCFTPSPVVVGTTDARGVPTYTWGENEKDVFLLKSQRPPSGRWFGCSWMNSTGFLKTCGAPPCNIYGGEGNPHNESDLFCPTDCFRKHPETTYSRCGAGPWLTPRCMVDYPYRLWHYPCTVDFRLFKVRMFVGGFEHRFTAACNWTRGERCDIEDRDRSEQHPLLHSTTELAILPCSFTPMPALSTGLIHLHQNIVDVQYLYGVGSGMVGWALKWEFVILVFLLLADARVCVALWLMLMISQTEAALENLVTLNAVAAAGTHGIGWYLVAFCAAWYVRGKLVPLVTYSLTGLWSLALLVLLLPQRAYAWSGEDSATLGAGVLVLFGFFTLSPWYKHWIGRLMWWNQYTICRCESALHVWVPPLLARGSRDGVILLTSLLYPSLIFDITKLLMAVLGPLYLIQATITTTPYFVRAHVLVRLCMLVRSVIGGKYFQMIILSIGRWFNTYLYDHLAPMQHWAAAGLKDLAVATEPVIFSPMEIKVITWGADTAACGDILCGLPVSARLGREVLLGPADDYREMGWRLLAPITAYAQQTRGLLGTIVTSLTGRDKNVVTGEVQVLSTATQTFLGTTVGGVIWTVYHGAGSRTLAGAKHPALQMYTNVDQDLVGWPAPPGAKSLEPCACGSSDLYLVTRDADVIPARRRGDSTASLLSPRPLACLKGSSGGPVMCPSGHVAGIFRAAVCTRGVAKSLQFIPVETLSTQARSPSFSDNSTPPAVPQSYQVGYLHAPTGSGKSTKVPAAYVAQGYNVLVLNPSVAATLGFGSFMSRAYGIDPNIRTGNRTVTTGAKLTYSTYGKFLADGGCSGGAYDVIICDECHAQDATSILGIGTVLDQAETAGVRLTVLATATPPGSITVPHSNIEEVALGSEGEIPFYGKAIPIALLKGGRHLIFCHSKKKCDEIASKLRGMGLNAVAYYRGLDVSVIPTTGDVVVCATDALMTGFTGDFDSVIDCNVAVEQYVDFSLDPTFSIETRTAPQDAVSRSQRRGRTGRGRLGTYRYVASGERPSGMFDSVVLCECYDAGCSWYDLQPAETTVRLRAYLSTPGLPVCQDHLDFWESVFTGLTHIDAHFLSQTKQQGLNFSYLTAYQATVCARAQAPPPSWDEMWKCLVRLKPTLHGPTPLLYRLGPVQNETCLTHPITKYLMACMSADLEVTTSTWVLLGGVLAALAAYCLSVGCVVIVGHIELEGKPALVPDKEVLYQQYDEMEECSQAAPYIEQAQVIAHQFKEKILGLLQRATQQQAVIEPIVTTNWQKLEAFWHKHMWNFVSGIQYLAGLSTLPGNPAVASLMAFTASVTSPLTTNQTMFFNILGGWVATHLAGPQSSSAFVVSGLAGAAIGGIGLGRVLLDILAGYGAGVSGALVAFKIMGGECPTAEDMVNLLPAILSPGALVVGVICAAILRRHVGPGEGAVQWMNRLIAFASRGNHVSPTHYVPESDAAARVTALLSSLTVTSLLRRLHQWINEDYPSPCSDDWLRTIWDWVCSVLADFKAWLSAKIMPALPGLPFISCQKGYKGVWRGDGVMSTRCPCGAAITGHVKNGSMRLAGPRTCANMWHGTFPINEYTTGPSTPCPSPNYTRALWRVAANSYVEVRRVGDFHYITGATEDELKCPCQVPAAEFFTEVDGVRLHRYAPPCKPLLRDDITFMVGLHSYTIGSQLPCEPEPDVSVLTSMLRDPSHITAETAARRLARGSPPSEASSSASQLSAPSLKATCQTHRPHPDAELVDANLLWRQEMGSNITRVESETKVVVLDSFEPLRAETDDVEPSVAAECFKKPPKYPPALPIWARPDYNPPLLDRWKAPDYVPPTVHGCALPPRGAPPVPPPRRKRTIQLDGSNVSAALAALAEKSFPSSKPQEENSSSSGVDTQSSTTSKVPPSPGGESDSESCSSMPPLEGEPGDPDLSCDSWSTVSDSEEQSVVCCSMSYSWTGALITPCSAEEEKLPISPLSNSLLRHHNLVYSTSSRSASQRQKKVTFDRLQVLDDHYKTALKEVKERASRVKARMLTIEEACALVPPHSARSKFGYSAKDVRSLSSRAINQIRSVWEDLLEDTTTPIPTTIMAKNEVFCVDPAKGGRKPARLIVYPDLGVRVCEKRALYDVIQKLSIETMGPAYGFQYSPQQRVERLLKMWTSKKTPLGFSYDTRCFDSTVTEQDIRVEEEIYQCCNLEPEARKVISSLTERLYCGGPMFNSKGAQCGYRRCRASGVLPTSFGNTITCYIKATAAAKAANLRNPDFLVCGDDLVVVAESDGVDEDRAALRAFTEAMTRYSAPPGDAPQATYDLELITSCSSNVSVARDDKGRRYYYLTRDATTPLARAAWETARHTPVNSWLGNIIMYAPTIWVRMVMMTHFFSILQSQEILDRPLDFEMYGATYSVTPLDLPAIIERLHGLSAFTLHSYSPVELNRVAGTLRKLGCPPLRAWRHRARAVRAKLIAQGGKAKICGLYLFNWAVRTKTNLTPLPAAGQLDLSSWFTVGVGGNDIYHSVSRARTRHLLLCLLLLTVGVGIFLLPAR
Source text: Purified NS3 protease domain (amino acids 1-181) of the genotype 1b and 3a virus were generated as above. The internally quenched fluorogenic depsipeptide substrate Ac-DED(Edans)-EEAbuΨ[COO]ASK(Dabcyl)-NH2 and a synthetic peptide containing the hydrophobic core residues of the NS4A protein cofactor ([…]; NS4A peptide) were obtained from Anaspec, Inc. (San Jose, Calif.). Other chemicals and biochemicals were of reagent grade or better and were purchased from standard suppliers.
Reactions were run at room temperature in buffer consisting of 50 mM HEPES, 40% glycerol, 0.05% Triton X-100, 10 mM DTT, and 10% DMSO. The final assay solutions contained 50 pM NS3 genotype 1 b protease or 200 pM genotype 3a protease, 20 μM NS4A peptide, and 4 μM substrate (genotype 1b) or 2 μM substrate (genotype 3a). Inhibitor concentrations varied from 100 nM to 5 pM in 3-fold dilutions, and no-inhibitor controls were included.
Compound dilutions were made in DMSO at 20× final concentration. Reaction mixtures were prepared in 96-well assay plates. A solution of enzyme and NS4A peptide in assay buffer (25 μL volume with both reagents at 4× final concentration) was mixed with 45 μL assay buffer and 5 μL of either inhibitor or DMSO, and pre-incubated at room temperature for 1 hour. The reaction was started by addition of 25 μL substrate solution at 4× final concentration. Plates were mixed vigorously for 5-10 seconds and reactions were allowed to proceed for 90 minutes, fluorescence was measured every 30 s between 90 and 120 minutes reaction time using a Tecan InfiniTe M1000 or PerkinElmer Envision multimode plate reader with an excitation wavelength of 340 nm and an emission wavelength of 490 nm.
Rates were calculated from the progress curves at steady state, in the time frame of 90-120 minutes after addition of substrate. To determine the Ki, rates were plotted as a function of inhibitor concentration, and the data were fit with equation 1 (Morrison, J. F., Biochimica et Biophysica Acta 1969, 185, 269-286) to calculate Ki^app using GraphPad Prism 5. Active fraction of enzyme was determined by active site titration with known potent inhibitors. Ki was calculated from Ki^app/(1+[[S]/Km]).

SMILES | EC50 [1] | EC50 [2] | EC50 [3] | EC50 [4] | EC50 [5] | EC50 [6] | EC50 [7] | EC50 [8] | EC50 [9] | EC50 [10] | Ki [11]
CC[C@@H]1[C@@H]2CN(C(=O)[C@H](C(C)(C)C)NC(=O)O[C@@H]3C[C@H]3CCCCCc3nc4ccc(OC)cc4nc3O2)[C@@H]1C(=O)N[C@]1(C(=O)NS(=O)(=O)C2(C)CC2)C[C@H]1C(F)F [Example 1, (1aR,5S,8S,9S,10R,22aR)-5-tert-butyl-N-[(1R,2R)-2-(difluoromethyl)-1-{[(1-methylcyclopropyl)sulfonyl]carbamoyl}cyclopropyl]-9-ethyl-14-methoxy-3,6-dioxo-1,1a,3,4,5,6,9,10,18,19,20,21,22,22a-tetradecahydro-8H-7,10-methanocyclopropa[18,19][1,10,3,6]dioxadiazacyclononadecino[11,12-b]quinoxaline-8-carboxamide] | 4.1 nM | 2.2 nM | 17 nM | 3.2 nM | 3.9 nM | 4.9 nM | 46 nM | 4.4 nM | 17 nM | 3.1 nM | 0.07 nM
CC[C@@H]1[C@@H]2CN(C(=O)[C@H](C(C)(C)C)NC(=O)O[C@]3(C)C[C@H]3CCCCCc3nc4ccc(OC)cc4nc3O2)[C@@H]1C(=O)N[C@]1(C(=O)NS(=O)(=O)C2(C)CC2)C[C@H]1C(F)F [Example 7, (1aR,5S,8S,9S,10R,22aR)-5-tert-butyl-N-[(1R,2R)-2-(difluoromethyl)-1-{[(1-methylcyclopropyl)sulfonyl]carbamoyl}cyclopropyl]-9-ethyl-14-methoxy-1a-methyl-3,6-dioxo-1,1a,3,4,5,6,9,10,18,19,20,21,22,22a-tetradecahydro-8H-7,10-methanocyclopropa[18,19][1,10,3,6] dioxadiazacyclononadecino[11,12-b]quinoxaline-8-carboxamide] | 4.2 nM | 2.3 nM | 14 nM | 3.8 nM | 3.8 nM | 6.7 nM | 67 nM | 4.9 nM | 20 nM | 3.2 nM | 0.06 nM
CC[C@@H]1[C@@H]2CN(C(=O)[C@H](C(C)(C)C)NC(=O)O[C@@H]3C[C@H]3CCCCC(F)(F)c3nc4ccc(OC)cc4nc3O2)[C@@H]1C(=O)N[C@]1(C(=O)NS(=O)(=O)C2(C)CC2)C[C@H]1C(F)F [Example 17, (1aR,5S,8S,9S,10R,22aR)-5-tert-butyl-N-[(1R,2R)-2-(difluoromethyl)-1-{[(1-methylcyclopropyl)sulfonyl]carbamoyl}cyclopropyl]-9-ethyl-18,18-difluoro-14-methoxy-3,6-dioxo-1,1a,3,4,5,6,9,10,18,19,20,21,22,22a-tetradecahydro-8H-7,10-methanocyclopropa[18,19][1,10,3,6]dioxadiazacyclononadecino[11,12-b]quinoxaline-8-carboxamide] | 3.7 nM | 1.7 nM | 6.1 nM | 2.9 nM | 3.3 nM | 2.8 nM | 15 nM | 3.9 nM | 4.3 nM | 2.9 nM | 0.06 nM
CC[C@@H]1[C@@H]2CN(C(=O)[C@H](C(C)(C)C)NC(=O)O[C@@H]3C[C@H]3CCCC3CC3c3nc4ccc(OC)cc4nc3O2)[C@@H]1C(=O)N[C@]1(C(=O)NS(=O)(=O)C2(C)CC2)C[C@H]1C(F)F (stereo partly drawn) [Example 36, (1aR,5S,8S,9S,10R,21aR)-5-tert-butyl-N-[(1R,2R)-2-(difluoromethyl)-1-{[(1-methylcyclopropyl)sulfonyl]carbamoyl}cyclopropyl]-9-ethyl-14-methoxy-3,6-dioxo-1a,3,4,5,6,9,10,17b,18,18a, 19,20,21,21a-tetradecahydro-1H,8H-7,10-methanodicyclopropa[13,14:18,19][1,10,3,6]dioxadiazacyclononadecino[11,12-b]quinoxaline-8-carboxamide] | 53 nM | 9.4 nM | 128 nM | 16 nM | 14 nM | 271 nM | 585 nM | 23 nM | 333 nM | 9.1 nM | 1.7 nM
CC[C@@H]1[C@@H]2CN(C(=O)[C@H](C(C)(C)C)NC(=O)O[C@]3(C)CCC[C@H]3CCCCCc3nc4ccc(OC)cc4nc3O2)[C@@H]1C(=O)N[C@]1(C(=O)NS(=O)(=O)C2(C)CC2)C[C@H]1C(F)F [Example 39] | 41 nM | 16 nM | 89 nM | 23 nM | 39 nM | 63 nM | 321 nM | 34 nM | 105 nM | 26 nM | 0.2 nM
CC[C@]12C[C@@H]1CCCCCc1nc3ccc(OC)cc3nc1O[C@H]1CN(C(=O)[C@H](C(C)(C)C)NC(=O)O2)[C@H](C(=O)N[C@]2(C(=O)NS(=O)(=O)C3(C)CC3)C[C@H]2C(F)F)[C@@H]1C [Example 42, (1aS,5S,8S,9S,10R,22aS)-5-tert-butyl-N-[(1R,2R)-2-(difluoromethyl)-1-{[(1-methylcyclopropyl)sulfonyl]carbamoyl}cyclopropyl]-1a-ethyl-14-methoxy-9-methyl-3,6-dioxo-1,1a,3,4,5,6,9,10,18,19,20,21,22,22a-tetradecahydro-8H-7,10-methanocyclopropa[18,19][1,10,3,6]dioxadiazacyclononadecino[11,12-b]quinoxaline-8-carboxamide] | 17 nM | 10 nM | – | 17 nM | 16 nM | 35 nM | 343 nM | 20 nM | 109 nM | 14 nM | 0.75 nM
CC[C@@]12C[C@H]1CCCCCc1nc3ccc(OC)cc3nc1O[C@H]1CN(C(=O)[C@H](C(C)(C)C)NC(=O)O2)[C@H](C(=O)N[C@]2(C(=O)NS(=O)(=O)C3(C)CC3)C[C@H]2C(F)F)[C@@H]1C [Example 43, (1aR,5S,8S,9S,10R,22aR)-5-tert-butyl-N-[(1R,2R)-2-(difluoromethyl)-1-{[(1-methylcyclopropyl)sulfonyl]carbamoyl}cyclopropyl]-1a-ethyl-14-methoxy-9-methyl-3,6-dioxo-1,1a,3,4,5,6,9,10,18,19,20,21,22,22a-tetradecahydro-8H-7,10-methanocyclopropa[18,19][1,10,3,6]dioxadiazacyclononadecino[11,12-b]quinoxaline-8-carboxamide] | 5.2 nM | 2.4 nM | – | 3.8 nM | 3.8 nM | 8.7 nM | 92 nM | 4.9 nM | 41 nM | 3.6 nM | 0.16 nM
